Test results taken from patent publication US20120122860A1, “SOLID FORMS OF SULFONAMIDES AND AMINO ACIDS” (Plexxikon, Inc., priority 2009, published 2012).
pIC50: −log10 of the molar value.

Tests used:
B-Raf = B-Raf (Homo sapiens, UniProt P15056); assay: Kinase activity assay, B-Raf; assay type: biochemical; conditions: read-out: activity toward kinase B-Raf, IC50
B-Raf V600E = B-Raf V600E (Homo sapiens, UniProt P15056, V600E); assay: Kinase activity assay, B-Raf V600E; assay type: biochemical; conditions: read-out: activity toward kinase B-Raf V600E, IC50
Kit = Kit (Homo sapiens, UniProt P10721); assay: Kinase activity assay, Kit
A-Raf = molecular target: T1, A-Raf (Homo sapiens, UniProt P10398); assay: Kinase activity assay, A-Raf
T1 sequence (P10398 1-606): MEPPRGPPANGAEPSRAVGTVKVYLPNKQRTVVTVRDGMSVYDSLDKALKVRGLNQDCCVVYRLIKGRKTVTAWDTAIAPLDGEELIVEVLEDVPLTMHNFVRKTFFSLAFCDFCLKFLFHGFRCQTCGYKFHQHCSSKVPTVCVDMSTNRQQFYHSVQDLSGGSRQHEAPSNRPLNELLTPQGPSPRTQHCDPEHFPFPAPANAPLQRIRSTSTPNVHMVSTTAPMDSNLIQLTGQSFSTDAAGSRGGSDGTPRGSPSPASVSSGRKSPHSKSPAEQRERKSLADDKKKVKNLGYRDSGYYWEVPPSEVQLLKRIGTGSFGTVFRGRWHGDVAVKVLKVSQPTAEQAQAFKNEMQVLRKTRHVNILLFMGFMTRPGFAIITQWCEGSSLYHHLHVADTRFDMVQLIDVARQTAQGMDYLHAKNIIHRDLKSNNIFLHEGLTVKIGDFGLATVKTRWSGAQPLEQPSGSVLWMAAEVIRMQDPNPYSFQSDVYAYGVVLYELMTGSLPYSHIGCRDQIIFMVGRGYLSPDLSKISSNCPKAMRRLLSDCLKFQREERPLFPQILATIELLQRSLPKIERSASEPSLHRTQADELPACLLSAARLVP

C-Raf = C-Raf (Homo sapiens, UniProt P04049); assay: Kinase activity assay, C-Raf
Src = Src (Homo sapiens, UniProt P12931); assay: Kinase activity assay, Src
Kdr = Kdr (Homo sapiens, UniProt P35968); assay: Kinase activity assay, Kdr

Measured: pIC50

Sequence of B-Raf V600E (P15056 whole entry V600E): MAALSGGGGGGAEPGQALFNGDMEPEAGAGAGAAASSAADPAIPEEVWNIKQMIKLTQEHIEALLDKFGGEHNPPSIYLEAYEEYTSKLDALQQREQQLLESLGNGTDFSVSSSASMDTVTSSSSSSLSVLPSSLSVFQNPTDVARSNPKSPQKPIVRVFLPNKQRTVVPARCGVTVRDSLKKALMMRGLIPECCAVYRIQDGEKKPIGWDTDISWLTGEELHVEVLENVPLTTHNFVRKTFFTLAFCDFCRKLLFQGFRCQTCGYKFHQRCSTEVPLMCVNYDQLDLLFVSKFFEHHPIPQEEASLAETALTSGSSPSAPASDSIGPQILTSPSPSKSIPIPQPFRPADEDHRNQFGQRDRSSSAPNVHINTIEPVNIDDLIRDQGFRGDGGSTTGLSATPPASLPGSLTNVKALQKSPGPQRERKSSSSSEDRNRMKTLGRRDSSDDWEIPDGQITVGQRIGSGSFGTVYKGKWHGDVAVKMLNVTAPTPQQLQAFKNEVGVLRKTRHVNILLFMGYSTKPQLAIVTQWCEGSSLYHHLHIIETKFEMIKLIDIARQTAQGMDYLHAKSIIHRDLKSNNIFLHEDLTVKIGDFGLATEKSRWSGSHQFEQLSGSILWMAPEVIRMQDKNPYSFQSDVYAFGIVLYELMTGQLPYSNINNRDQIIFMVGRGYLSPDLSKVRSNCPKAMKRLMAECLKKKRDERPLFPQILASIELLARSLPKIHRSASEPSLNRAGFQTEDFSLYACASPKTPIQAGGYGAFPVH
Sequence of Kit (P10721 26-976): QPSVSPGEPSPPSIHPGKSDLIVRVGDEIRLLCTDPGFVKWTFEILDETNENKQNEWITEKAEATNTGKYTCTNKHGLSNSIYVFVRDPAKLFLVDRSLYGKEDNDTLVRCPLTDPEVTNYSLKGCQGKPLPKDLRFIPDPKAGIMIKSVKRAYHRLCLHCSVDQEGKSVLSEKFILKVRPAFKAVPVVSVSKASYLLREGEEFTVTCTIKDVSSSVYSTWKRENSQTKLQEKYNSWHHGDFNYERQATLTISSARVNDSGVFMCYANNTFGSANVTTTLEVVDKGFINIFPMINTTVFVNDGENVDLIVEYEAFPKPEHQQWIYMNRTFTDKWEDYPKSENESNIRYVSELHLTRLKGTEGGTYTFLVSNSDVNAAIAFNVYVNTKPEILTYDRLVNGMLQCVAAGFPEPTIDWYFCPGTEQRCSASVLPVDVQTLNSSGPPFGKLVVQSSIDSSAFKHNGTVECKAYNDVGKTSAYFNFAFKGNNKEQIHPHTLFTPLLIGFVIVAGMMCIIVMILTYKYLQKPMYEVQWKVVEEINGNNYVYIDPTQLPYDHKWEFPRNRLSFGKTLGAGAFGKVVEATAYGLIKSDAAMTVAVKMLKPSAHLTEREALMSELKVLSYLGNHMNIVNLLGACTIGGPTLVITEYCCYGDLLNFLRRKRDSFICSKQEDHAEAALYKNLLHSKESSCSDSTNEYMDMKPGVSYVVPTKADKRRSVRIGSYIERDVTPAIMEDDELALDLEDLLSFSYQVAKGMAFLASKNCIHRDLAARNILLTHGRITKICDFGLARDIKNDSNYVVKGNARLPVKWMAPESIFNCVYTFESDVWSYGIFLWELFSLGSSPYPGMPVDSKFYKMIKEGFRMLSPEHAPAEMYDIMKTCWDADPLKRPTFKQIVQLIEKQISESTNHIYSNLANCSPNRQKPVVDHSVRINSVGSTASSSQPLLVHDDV
Sequence of B-Raf (P15056 whole entry): as the sequence (P15056 whole entry V600E) above, with E600V counted along it
Sequence of Kdr (P35968 20-1356): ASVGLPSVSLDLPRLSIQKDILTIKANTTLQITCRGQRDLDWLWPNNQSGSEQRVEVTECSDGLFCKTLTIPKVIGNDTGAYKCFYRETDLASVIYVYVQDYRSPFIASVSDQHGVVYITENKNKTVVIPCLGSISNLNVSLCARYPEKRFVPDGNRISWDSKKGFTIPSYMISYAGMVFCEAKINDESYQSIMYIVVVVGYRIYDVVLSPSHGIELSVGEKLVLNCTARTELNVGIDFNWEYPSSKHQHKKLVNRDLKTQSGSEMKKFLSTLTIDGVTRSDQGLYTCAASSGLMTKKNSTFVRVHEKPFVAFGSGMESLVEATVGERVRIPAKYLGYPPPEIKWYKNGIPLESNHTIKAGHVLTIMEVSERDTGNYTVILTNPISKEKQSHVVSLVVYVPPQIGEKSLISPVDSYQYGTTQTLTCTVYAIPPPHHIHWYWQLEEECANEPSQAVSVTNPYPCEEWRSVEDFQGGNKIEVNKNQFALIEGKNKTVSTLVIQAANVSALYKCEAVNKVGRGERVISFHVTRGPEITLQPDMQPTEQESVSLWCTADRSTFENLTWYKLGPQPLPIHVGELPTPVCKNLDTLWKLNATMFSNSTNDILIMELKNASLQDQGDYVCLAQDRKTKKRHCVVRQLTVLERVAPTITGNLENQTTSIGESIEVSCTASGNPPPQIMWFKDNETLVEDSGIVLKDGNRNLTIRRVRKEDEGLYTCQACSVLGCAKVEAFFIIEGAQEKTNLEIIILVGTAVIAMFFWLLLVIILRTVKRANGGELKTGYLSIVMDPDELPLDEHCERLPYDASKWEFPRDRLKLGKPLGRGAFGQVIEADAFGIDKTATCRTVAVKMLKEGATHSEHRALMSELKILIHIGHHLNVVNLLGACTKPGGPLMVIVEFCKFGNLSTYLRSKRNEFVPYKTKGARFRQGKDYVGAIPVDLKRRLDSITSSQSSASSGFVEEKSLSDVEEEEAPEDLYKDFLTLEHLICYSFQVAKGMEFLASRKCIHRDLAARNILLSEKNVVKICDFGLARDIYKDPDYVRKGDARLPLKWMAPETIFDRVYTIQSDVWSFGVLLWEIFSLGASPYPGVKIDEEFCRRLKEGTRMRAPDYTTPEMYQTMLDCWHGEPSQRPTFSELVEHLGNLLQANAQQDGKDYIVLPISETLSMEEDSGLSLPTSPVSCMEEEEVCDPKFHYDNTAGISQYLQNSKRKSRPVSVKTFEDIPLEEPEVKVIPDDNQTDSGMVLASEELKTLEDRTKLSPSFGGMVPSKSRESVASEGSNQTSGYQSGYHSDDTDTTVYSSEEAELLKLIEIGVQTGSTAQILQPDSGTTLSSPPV
Sequence of Src (P12931 whole entry): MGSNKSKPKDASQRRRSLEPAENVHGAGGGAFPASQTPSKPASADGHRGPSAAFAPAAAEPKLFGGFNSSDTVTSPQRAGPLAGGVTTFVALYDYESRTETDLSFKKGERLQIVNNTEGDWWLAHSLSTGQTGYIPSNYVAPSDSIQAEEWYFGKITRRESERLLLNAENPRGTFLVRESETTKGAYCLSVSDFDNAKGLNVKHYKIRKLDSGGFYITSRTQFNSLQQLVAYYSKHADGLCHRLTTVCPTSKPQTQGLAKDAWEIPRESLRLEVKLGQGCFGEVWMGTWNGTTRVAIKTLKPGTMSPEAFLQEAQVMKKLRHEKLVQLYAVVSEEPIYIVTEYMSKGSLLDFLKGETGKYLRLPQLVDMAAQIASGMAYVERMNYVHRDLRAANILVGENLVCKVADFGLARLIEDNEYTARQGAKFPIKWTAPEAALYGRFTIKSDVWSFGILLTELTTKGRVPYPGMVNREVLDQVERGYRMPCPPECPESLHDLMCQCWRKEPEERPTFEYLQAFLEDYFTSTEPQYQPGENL
Sequence of C-Raf (P04049 whole entry): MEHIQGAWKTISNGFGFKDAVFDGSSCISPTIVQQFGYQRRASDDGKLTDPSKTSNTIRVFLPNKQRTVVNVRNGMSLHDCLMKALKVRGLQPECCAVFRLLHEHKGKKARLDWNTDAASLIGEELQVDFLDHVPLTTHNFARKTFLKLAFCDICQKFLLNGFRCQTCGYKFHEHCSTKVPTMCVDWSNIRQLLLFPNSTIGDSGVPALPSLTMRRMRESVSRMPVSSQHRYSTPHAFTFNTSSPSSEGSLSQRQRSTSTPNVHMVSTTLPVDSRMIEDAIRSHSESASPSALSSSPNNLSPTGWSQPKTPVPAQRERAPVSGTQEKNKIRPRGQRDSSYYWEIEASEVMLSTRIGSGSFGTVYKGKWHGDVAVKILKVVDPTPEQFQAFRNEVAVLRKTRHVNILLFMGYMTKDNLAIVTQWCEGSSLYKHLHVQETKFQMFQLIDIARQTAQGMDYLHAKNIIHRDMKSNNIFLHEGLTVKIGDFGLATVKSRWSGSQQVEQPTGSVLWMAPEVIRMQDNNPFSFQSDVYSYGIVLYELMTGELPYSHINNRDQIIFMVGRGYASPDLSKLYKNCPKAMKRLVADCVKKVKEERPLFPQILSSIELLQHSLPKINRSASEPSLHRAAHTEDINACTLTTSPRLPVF

N#Cc1ccnc2[nH]cc(C(=O)c3c(F)ccc(NS(=O)(=O)c4ccc(F)cc4)c3F)c12 [P-2035, N-[3-(4-Cyano-1H-pyrrolo[2,3-b]pyridine-3-carbonyl)-2,4-difluoro-phenyl]-4-fluoro-benzenesulfonamide]
not listed: Src | Kdr
≥ 5.00: all other assays above

N#Cc1cnc2[nH]cc(C(=O)c3cccc(NS(=O)(=O)c4ccccc4)c3F)c2c1 [P-2056, N-[3-(5-Cyano-1H-pyrrolo[2,3-b]pyridine-3-carbonyl)-2-fluoro-phenyl]-benzenesulfonamide]
not listed: Kit | Kdr
≥ 5.00: all other assays above

N#Cc1cnc2[nH]cc(C(=O)c3cccc(NS(=O)(=O)c4ccc(C(F)(F)F)cc4)c3F)c2c1 [P-2057, N-[3-(5-Cyano-1H-pyrrolo[2,3-b]pyridine-3-carbonyl)-2-fluoro-phenyl]-4-trifluoromethyl-benzenesulfonamide]
not listed: Kit | Kdr
≥ 5.00: all other assays above

N#Cc1ccnc2[nH]cc(C(=O)c3c(F)ccc(NS(=O)(=O)c4ccccn4)c3F)c12 [P-2078, Pyridine-2-sulfonic acid [3-(4-cyano-1H-pyrrolo[2,3-b]pyridine-3-carbonyl)-2,4-difluoro-phenyl]-amide]
not listed: Kit | Kdr
≥ 5.00: all other assays above

CC(C)S(=O)(=O)Nc1ccc(F)c(C(=O)c2c[nH]c3nccc(Cl)c23)c1F [P-2284, Propane-2-sulfonic acid [3-(4-chloro-1H-pyrrolo[2,3-b]pyridine-3-carbonyl)-2,4-difluoro-phenyl]-amide]
≥ 5.00: B-Raf V600E | Src | A-Raf | C-Raf

CCCC(C)S(=O)(=O)Nc1ccc(F)c(C(=O)c2c[nH]c3ncc(C#N)cc23)c1F (stereo not shown) [P-2314, Pentane-2-sulfonic acid [3-(5-cyano-1H-pyrrolo[2,3-b]pyridine-3-carbonyl)-2,4-difluoro-phenyl]-amide]
≥ 5.00: B-Raf V600E | Kit | A-Raf | C-Raf

CCCC(C)S(=O)(=O)Nc1ccc(F)c(C(=O)c2c[nH]c3nccc(OC)c23)c1F (stereo not shown) [P-2316, Pentane-2-sulfonic acid [2,4-difluoro-3-(4-methoxy-1H-pyrrolo[2,3-b]pyridine-3-carbonyl)-phenyl]-amide]
≥ 5.00: B-Raf V600E | Src | A-Raf

CCC(C)S(=O)(=O)Nc1ccc(F)c(C(=O)c2c[nH]c3ncc(C#N)cc23)c1F (stereo not shown) [P-2317, Butane-2-sulfonic acid [3-(5-cyano-1H-pyrrolo[2,3-b]pyridine-3-carbonyl)-2,4-difluoro-phenyl]-amide]
not listed: Src | Kdr
≥ 5.00: all other assays above

CCC(C)S(=O)(=O)Nc1ccc(F)c(C(=O)c2c[nH]c3nccc(Cl)c23)c1F (stereo not shown) [P-2319, Butane-2-sulfonic acid [3-(4-chloro-1H-pyrrolo[2,3-b]pyridine-3-carbonyl)-2,4-difluoro-phenyl]-amide]
not listed: B-Raf
≥ 5.00: all other assays above

CCC(C)S(=O)(=O)Nc1ccc(F)c(C(=O)c2c[nH]c3nccc(C#N)c23)c1F (stereo not shown) [P-2321, Butane-2-sulfonic acid [3-(4-cyano-1H-pyrrolo[2,3-b]pyridine-3-carbonyl)-2,4-difluoro-phenyl]-amide]
not listed: Kit
≥ 5.00: all other assays above

N#Cc1ccnc2[nH]cc(C(=O)c3c(F)ccc(NS(=O)(=O)CCC(F)(F)F)c3F)c12 [P-2332, 3,3,3-Trifluoro-propane-1-sulfonic acid [3-(4-cyano-1H-pyrrolo[2,3-b]pyridine-3-carbonyl)-2,4-difluoro-phenyl]-amide]
not listed: Kit | Kdr
≥ 5.00: all other assays above

N#Cc1cnc2[nH]cc(C(=O)c3c(F)ccc(NS(=O)(=O)CC(F)(F)F)c3F)c2c1 [P-2336, 2,2,2-Trifluoro-ethanesulfonic acid [3-(5-cyano-1H-pyrrolo[2,3-b]pyridine-3-carbonyl)-2,4-difluoro-phenyl]-amide]
not listed: Kit | Kdr
≥ 5.00: all other assays above

O=C(c1c(F)ccc(NS(=O)(=O)C2CCC2)c1F)c1c[nH]c2nccc(Cl)c12 [P-2363, Cyclobutanesulfonic acid [3-(4-chloro-1H-pyrrolo[2,3-b]pyridine-3-carbonyl)-2,4-difluoro-phenyl]-amide]
not listed: Kit | Src
≥ 5.00: all other assays above

COc1ccnc2[nH]cc(C(=O)c3c(F)ccc(NS(=O)(=O)C4CCC4)c3F)c12 [P-2364, Cyclobutanesulfonic acid [2,4-difluoro-3-(4-methoxy-1H-pyrrolo[2,3-b]pyridine-3-carbonyl)-phenyl]-amide]
not listed: Kit
≥ 5.00: all other assays above

O=C(c1c(F)ccc(NS(=O)(=O)C2CCCC2)c1F)c1c[nH]c2nccc(Cl)c12 [P-2368, Cyclopentanesulfonic acid [3-(4-chloro-1H-pyrrolo[2,3-b]pyridine-3-carbonyl)-2,4-difluoro-phenyl]-amide]
not listed: Kit | Kdr
≥ 5.00: all other assays above

N#Cc1ccnc2[nH]cc(C(=O)c3c(F)ccc(NS(=O)(=O)C4CCC4)c3F)c12 [P-2370, Cyclobutanesulfonic acid [3-(4-cyano-1H-pyrrolo[2,3-b]pyridine-3-carbonyl)-2,4-difluoro-phenyl]-amide]
not listed: Kit | Src
≥ 5.00: all other assays above

CCN(CC)S(=O)(=O)Nc1ccc(F)c(C(=O)c2c[nH]c3ncc(Cl)cc23)c1F [P-2384, N,N-diethylamino-sulfonic acid [3-(5-chloro-1H-pyrrolo[2,3-b]pyridine-3-carbonyl)-2,4-difluoro-phenyl]-amide]
not listed: B-Raf | C-Raf
≥ 5.00: all other assays above

CCN(CC)S(=O)(=O)Nc1ccc(F)c(C(=O)c2c[nH]c3ncc(OC)cc23)c1F [P-2389, N,N-diethylamino-sulfonic acid [2,4-difluoro-3-(5-methoxy-1H-pyrrolo[2,3-b]pyridine-3-carbonyl)-phenyl]-amide]
not listed: B-Raf | C-Raf
≥ 5.00: all other assays above

COc1cnc2[nH]cc(C(=O)c3c(F)ccc(NS(=O)(=O)N4CCOCC4)c3F)c2c1 [P-2391, Morpholine-4-sulfonic acid [2,4-difluoro-3-(5-methoxy-1H-pyrrolo[2,3-b]pyridine-3-carbonyl)-phenyl]-amide]
not listed: B-Raf | Kdr
≥ 5.00: all other assays above

Cc1cnc2[nH]cc(C(=O)c3c(F)ccc(NS(=O)(=O)N4CCOCC4)c3F)c2c1 [P-2392, Morpholine-4-sulfonic acid [2,4-difluoro-3-(5-methyl-1H-pyrrolo[2,3-b]pyridine-3-carbonyl)-phenyl]-amide]
not listed: B-Raf | Kdr
≥ 5.00: all other assays above

COc1ccnc2[nH]cc(C(=O)c3c(F)ccc(NS(=O)(=O)N4CCOCC4)c3F)c12 [P-2396, Morpholine-4-sulfonic acid [2,4-difluoro-3-(4-methoxy-1H-pyrrolo[2,3-b]pyridine-3-carbonyl)-phenyl]-amide]
not listed: Kit | Kdr
≥ 5.00: all other assays above

O=C(c1c(F)ccc(NS(=O)(=O)N2CCOCC2)c1F)c1c[nH]c2nccc(Cl)c12 [P-2397, Morpholine-4-sulfonic acid [3-(4-chloro-1H-pyrrolo[2,3-b]pyridine-3-carbonyl)-2,4-difluoro-phenyl]-amide]
not listed: Kit | Kdr
≥ 5.00: all other assays above
